This passage reports TGI and GI50 results from PubChem BioAssay (NCI).

Structures are written as SMILES.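 Cells were grown in 96-well plates and exposed to each compound for 48 hours at five concentrations; endpoints were interpolated linearly between bracketing concentrations, or set to the highest concentration if not reached. At the GI50, growth is halved. Definition used: TGI = concentration required for complete inhibition of growth.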

What all share (test): DTP human tumour cell line panel, 48 h
For experiment [1], the system named is UO-31 renal.
The test system of experiment [2] is HCC-2998 colon.
Experiment [3] relates to EKVX NSCLC.
For experiment [4], the system named is SNB-19 CNS.
Experiment [5] relates to SF-268 CNS.
Experiment [6] concerns HOP-62 NSCLC.
For experiment [7], the system named is UACC-62 melanoma.
Experiment [8] relates to MOLT-4 leukemia.
Experiment [9] deals with ACHN renal.
The subject of experiment [10] is BT-549 breast.
Experiment [11] deals with M14 melanoma.
Experiment [12] deals with SK-OV-3 ovarian.
Experiment [13] concerns SF-295 CNS.
In experiment [14] the test system is RPMI-8226 leukemia.
The subject of experiment [15] is MCF7 breast.
The test system of experiment [16] is PC-3 prostate.
Experiment [17] has as its system HT29 colon.
Experiment [18] relates to NCI-H226 lung.
In experiment [19] the test system is T-47D breast.

As for `CCc1n[nH]c(=O)n1/N=C/c1c(O)ccc2ccccc12`, the TGI in experiment [1], in [2], in experiment [3], in [4], in experiment [5] and in [6] was > 100 µM in each case. In addition, the TGI in experiment [7], in experiment [8], in [9], in experiment [10], in experiment [11] and in experiment [12] was > 100 µM throughout. Besides, the TGI in [13], in experiment [14], in experiment [15] and in experiment [16] was > 100 µM throughout.
Regarding `CCc1c2c([nH]c(=S)c1C#N)CCC2`, the TGI in experiment [1] was > 100 µM; in [17] it was > 100 µM; in [18] it was > 100 µM; in [2], > 100 µM; in experiment [3], 75.6 µM; in [4], > 100 µM. Moreover, the concentration for total growth inhibition (TGI) in experiment [5], in experiment [6], in experiment [7], in experiment [8], in [9] and in [10] was > 100 µM throughout. Moreover, the TGI in experiment [11], in experiment [12], in experiment [13], in [14], in experiment [15] and in experiment [16] was > 100 µM each time.
As to `Cc1csc2[n+]1C(=O)/C(=C\c1ccc([N+](=O)[O-])cc1)S2`, the TGI in experiment [1] amounted to 39.3 µM; in experiment [17], 60.2 µM; in experiment [18], 26.9 µM; in experiment [2], 43.9 µM; in experiment [4], 87.3 µM; in experiment [5] it was 86.5 µM. For the same compound, the TGI in [6] is 82.2 µM; in experiment [7], 41 µM; in experiment [8] it was > 100 µM; in [9], 65.7 µM; in experiment [11] it was > 100 µM; in [12], 85.1 µM. The TGI is 65.1 µM in experiment [13]; 65.5 µM in experiment [19]; > 100 µM in [14]; > 100 µM in experiment [15]; 75.5 µM in experiment [16].
With `O=C(ON=C1c2ccccc2C(Br)C(Br)c2ccccc21)c1cc([N+](=O)[O-])cc([N+](=O)[O-])c1` (stereo unspecified), the TGI in experiment [17] amounted to 37.7 µM; in experiment [18], 48.6 µM; in experiment [2], 68.3 µM; in [3], 59.8 µM; in experiment [4], 56.8 µM; in [5] it was 35.7 µM. In addition, the TGI in [6] was 34.3 µM; in experiment [7] it was 38.5 µM; in [8], 45.1 µM; in [9], 45 µM; in experiment [11], 33.6 µM; in experiment [12] it was 66.8 µM. In addition, the TGI in experiment [13] is > 88.9 µM; in experiment [19], 76.7 µM; in [14], 37 µM; in experiment [15], 48 µM; in experiment [16], > 73.5 µM.
As for `C1=NCCN2CCN(CCN=Cc3ccc(cc3)OCc3cccc(n3)COc3ccc1cc3)CC2`, the TGI in [1], in experiment [17], in experiment [18], in experiment [3], in experiment [4] and in experiment [5] was > 50 µM throughout. The TGI in experiment [6], in [7], in [8], in experiment [9], in [10] and in experiment [11] was > 50 µM each time. In addition, the TGI in experiment [12], in experiment [13], in experiment [14], in experiment [15] and in experiment [16] was > 50 µM each time.
On to `Cc1cc(=O)[nH]c(-n2[nH]c(C)c(CCO)c2=O)n1`, for which the TGI in experiment [1], in experiment [17], in experiment [18], in [2], in [3] and in experiment [4] was > 100 µM throughout. Further, the TGI in [5], in [6], in [7], in [9], in [11] and in experiment [12] was > 100 µM in each case. Further, the TGI in [13], in experiment [19], in [14], in experiment [15] and in [16] was > 100 µM throughout.
For `CC(C)OC(=O)c1ccc(NCc2cc(O)ccc2O)cc1Cl`, the TGI is 2.38 µM in experiment [1]; > 93 µM in [17]; > 49.9 µM in [18]; 17.3 µM in [2]; 25.5 µM in experiment [3]; > 22.2 µM in experiment [4]. For the same compound, the TGI in experiment [5] is > 66.4 µM; in [6] it was > 64.5 µM; in experiment [7], 18.6 µM; in [8] it was 8.97 µM; in experiment [9] it was 7.83 µM; in experiment [10], 1.57 µM. Further, the TGI in experiment [11] was > 100 µM; in experiment [12], 49.2 µM; in [13], 34.6 µM; in experiment [15] it was > 45.2 µM; in experiment [16], 12.5 µM.
Take `O=C1NC2ON=C(c3ccccc3)C2C2ON=C(c3ccccc3)N12` (stereo unspecified): the TGI in [1], in experiment [17], in experiment [18], in experiment [2], in [3] and in experiment [4] was > 100 µM each time. Also, the TGI in experiment [5], in [6], in experiment [7], in experiment [9], in [10] and in [11] was > 100 µM throughout. For the same compound, the TGI in [12], in [13], in [15] and in experiment [16] was > 100 µM in each case.
Turning to `CCOC(=O)c1cnc2oc3ccc(O)cc3c2c1C`, the TGI in [17], in [18], in experiment [2], in [3], in experiment [4] and in experiment [5] was > 100 µM each time. The TGI in experiment [7], in [8], in experiment [9], in experiment [11], in experiment [12] and in [13] was > 100 µM in each case. Moreover, the TGI in experiment [19], in experiment [14], in experiment [15] and in experiment [16] was > 100 µM in each case. Besides, the GI50 in [5] was 69.9 µM.
On to `COC(=O)[C@@H]1CN(C(C)=O)C(=O)N1`, for which the TGI in experiment [1], in [17], in [18], in experiment [2], in [3] and in experiment [4] was > 100 µM each time. Moreover, the TGI in experiment [5], in experiment [6], in [7], in [8], in [9] and in [11] was > 100 µM in each case. The TGI in experiment [12], in [13], in [19], in experiment [14] and in experiment [16] was > 100 µM each time.
In the case of `CCSc1[nH]c(NC(=S)NC(=O)c2ccccc2Cl)c(C(N)=O)c1C(N)=O`, the TGI in [17], in experiment [2], in experiment [3], in [5], in experiment [6] and in [7] was > 10 µM each time. In addition, the TGI in experiment [8], in [11], in experiment [12], in experiment [13], in experiment [19] and in experiment [14] was > 10 µM in each case. The TGI in experiment [15] and in experiment [16] was > 10 µM throughout.
`O=C1/C(=C/c2cccc(F)c2)CCCc2ccccc21`: the TGI in experiment [1] is 29.9 µM; in [17] it was 25.9 µM; in [18] it was 27.7 µM; in experiment [2], 27.8 µM; in [3], 28.6 µM; in [4], 29.4 µM. For the same compound, the TGI in experiment [5] was determined as 28.1 µM; in experiment [6], 27.4 µM; in experiment [7], 28.6 µM; in [8], 43.6 µM; in experiment [9], 33.1 µM; in [10], 34.1 µM. The TGI was found to be 26.8 µM in experiment [11]; 68.2 µM in [12]; 29.7 µM in experiment [13]; 53.7 µM in [14]; 30.5 µM in experiment [15]; 29.1 µM in experiment [16].
As to `Cn1c(=O)c(Br)c(C=O)n(CCO[N+](=O)[O-])c1=O`, the TGI was > 100 µM in [18]; 32 µM in experiment [2]; 7.07 µM in experiment [3]; 68.4 µM in [4]; 31.3 µM in experiment [5]; 37.5 µM in [6]. Moreover, the TGI was 4.9 µM in experiment [7]; 5.8 µM in experiment [8]; 13.2 µM in [9]; 15 µM in experiment [11]; 38.7 µM in experiment [12]; 14.6 µM in experiment [19]. For the same compound, the TGI was found to be 7.42 µM in [14], 6.17 µM in experiment [15] and 23.5 µM in [16].
